Converted amounts (≈) assume the structure as drawn. Where two headings read alike, the source gives them in different places.
How the values were obtained:
in vitro [1] = details: human, IC50 (50% inhibitory concentration, cytotoxicity)
Experimental: (§1) The human retinal pigment epithelial cells prepared in Example 2 were treated with 0.25% trypsin to collect the cells from a culture dish. The collected cells were seeded in a 96-well culture dish previously coated with Matrigel at 100000 or 120000 cells per well and then cultured in an incubator at 37° C. and 5% CO2.
(§2) After the cultivation for 2 hours to 4 hours, the medium was removed from the 96-well culture dish using an aspirator and Earle's Balanced Salt Solution (EBSS) was then added to the 96-well culture dish at 150 μl per well to wash the cells.
(§3) After the 96-well culture dish was shaded by wrapping with aluminum foil, irradiation of the culture dish shaded with aluminum foil with light was carried out using a light irradiation device (a solar simulator SXL-2500V2: SERIC LTD.) for 40 minutes (light irradiation dose of about 5 J/cm^2). Immediately after light irradiation, the 96-well culture dish was washed twice with 150 μl of a DMEM/F12 culture liquid and a DMEM/F12 culture liquid supplemented with N2-supplement was then added to the 96-well culture dish at 100 μl per well, followed by cultivation overnight.
(§4) After the cultivation, the medium was removed from the 96-well culture dish and a previously prepared mixed solution of equal amounts of DMEM/F12 culture liquid and Cell titer Glo reaction liquid was then added to the 96-well culture dish at 100 μl per well.
(§5) The obtained 96-well culture dish was allowed to stand at room temperature for 30 minutes while shaking in a shaded state with aluminum foil and 95 μl of culture contained in the 96-well culture dish was then transferred to a white 96-well examining dish. Next, the amount of luminescence of the culture contained in the 96-well examining dish (the amount of luminescence has a correlation with the cell survival rate) was measured by EnVision Multilabel Reader (PerkinElmer). The 50% inhibitory concentration (IC50) of a test substance to the human retinal pigment epithelial cells was calculated from the measured values and the calculated value was considered as a value showing cytotoxicity (an index value correlated therewith).
(§6) Unlike Example 3, irradiation with light was carried out using a light irradiation device (a solar simulator SXL-2500V2: SERIC LTD.) for 40 minutes without wrapping the 96-well culture dish with aluminum foil (light irradiation dose is about 5 J/cm^2 by calculation based on light irradiation strength at 360 nm). Immediately after light irradiation, the 96-well culture dish was washed twice with 150 μl of a DMEM/F12 culture liquid and a DMEM/F12 culture liquid supplemented with N2-supplement was then added to the 96-well culture dish at 100 μl per well, followed by cultivation overnight.
(§7) The above-described PIF value (Photo Irritation Facor value) was obtained based on the 50% inhibitory concentration (IC50) calculated in Example 3 and Example 4 (that is, a value obtained by dividing the cytotoxicity IC50 value in human retinal pigment epithelial cells exposed to a test substance (a (shaded) control for non-light Irradiation) by the cytotoxicity IC50 value in human retinal pigment epithelial cells cultured under simulated solar light irradiation within 24 hours after the onset of exposure to the test substance). […] When the value (PIF value) was greater than 5, the test substance was evaluated as phototoxicity-positive.

[2] = tested on: human retinal pigment epithelial cells; test: in vitro
Experimental: as §1, §2, §3, §4, §5, §6, §7

Balb/c 3T3 cells = test: in vitro
Experimental: (§8) “Balb/c 3T3 cells” are connective tissue cells and fibroblasts.
(§9) The “Balb/c 3T3 cells” cultured in DMEM medium supplemented with 10% bovine serum and L-glutamine were treated with 0.25% trypsin to collect the cells from a culture dish. The collected cells were seeded in a 96-well culture dish previously coated with a 0.1% gelatin solution at 10000 cells per well and then cultured in DMEM medium supplemented with 10% bovine serum and […] in an incubator at 37° C. and 5% CO2 overnight.
(§10) After the cultivation, the medium was removed from the 96-well culture dish using an aspirator and Earle's Balanced Salt Solution (EBSS) was then added to the 96-well culture dish at 150 μl per well to wash the cells.
(§11) After the 96-well culture dish was shaded by wrapping with aluminum foil, irradiation of the culture dish shaded with aluminum foil with light was carried out using a light irradiation device (a solar simulator SXL-2500V2: SERIC LTD.) for 40 minutes (the light irradiation dose is about 5 J/cm^2 by calculation based on irradiation strength at 360 nm). Immediately after light irradiation, the 96-well culture dish was washed twice with 150 μl of a DMEM/F12 culture liquid and a DMEM/F12 culture liquid supplemented with N2-supplement was then added to the 96-well culture dish at 100 μl per well, followed by cultivation overnight.
as §4
(§12) The obtained 96-well culture dish was allowed to stand at room temperature for 30 minutes while shaking in a shaded state with aluminum foil and 95 μl of culture contained in the 96-well culture dish was then transferred to a white 96-well examining dish.
(§13) Next, the amount of luminescence of the culture contained in the 96-well examining dish (the amount of luminescence has a correlation with the cell survival rate) was measured by EnVision Multilabel Reader (PerkinElmer). The 50% inhibitory concentration (IC50) of a test substance to the human retinal pigment epithelial cells was calculated from the measured values and the calculated value was considered as a value showing cytotoxicity (an index value correlated therewith).
(§14) The “Balb/c 3T3 cells” cultured in DMEM medium supplemented with 10% bovine serum and L-glutamine were treated with 0.25% trypsin to collect the cells from a culture dish. The collected cells were seeded in a 96-well culture dish previously coated with a 0.1% gelatin solution at 10000 cells per well and then cultured in DMEM medium supplemented with 10% bovine serum and L-glutamine in an incubator at 37° C. and 5% CO2 overnight.
(§15) Unlike Comparative Example 1, light irradiation was carried out using a light irradiation device (a solar simulator SXL-2500V2: SERIC LTD.) for 40 minutes without wrapping the 96-well culture dish with aluminum foil (light irradiation dose is about 5 J/cm^2 by calculation based on light irradiation strength at 360 nm). Immediately after light irradiation, the 96-well culture dish was washed twice with 150 μl of a DMEM/F12 culture liquid and a DMEM/F12 culture liquid supplemented with N2-supplement was then added to the 96-well culture dish at 100 μl per well, followed by cultivation overnight.
(§16) The obtained 96-well culture dish was allowed to stand at room temperature for 30 minutes while shaking in a shaded state with aluminum foil and 95 μl of culture contained in the 96-well culture dish was then transferred to a white 96-well examining dish. Next, the amount of luminescence of the culture contained in the 96-well examining dish (the amount of luminescence has a correlation with the cell survival rate) was measured by EnVision Multilabel Reader (PerkinElmer).

yeast-RBC = details: 4 facilities, validation study report Aug. 27, 2004; cited from earlier work
in vitro [3] = details: mouse, IC50 (50% inhibitory concentration, cytotoxicity)
Experimental: as §8, §9, §10, §11, §4, §12, §13, §14, §15, §16

[4] = tested on: human retinal pigment epithelial cells
Experimental: The relationship between the light irradiation dose and the above-described PIF value (that is, a value obtained by dividing the cytotoxicity IC50 value in human retinal pigment epithelial cells exposed to a test substance (a (shaded) control for non-light irradiation) by the cytotoxicity IC50 value in human retinal pigment epithelial cells cultured under simulated solar light irradiation within 24 hours after the onset of contact with the test substance) was examined using chlorpromazine (CPZ) used as a positive control in the OECD guideline. Light irradiation was set to each condition of a light of 2.09 mW/cm^2 (measured with UVR300 manufactured by TOPCON CORPORATION equipped with photoreceiving part UD360) for 15 minutes (1.87 J/cm^2), 20 minutes (2.50 J/cm^2), 25 minutes (3.13 J/cm^2), 30 minutes (3.75 J/cm^2), 40 minutes (5.00 J/cm^2) and 60 minutes (7.51 J/cm^2), and the phototoxicity test method was carried out according to the methods described in Example 3 and Example 4. The phototoxicity test method in shaded conditions as a control for non-light irradiation was carried out in the same manner as in the phototoxicity test method under light irradiation except that light was blocked.
The number of viable cells of the human retinal pigment epithelial cells was checked for 15 minutes (1.87 J/cm^2), 20 minutes (2.50 J/cm^2), 25 minutes (3.13 J/cm^2), 30 minutes (3.75 J/cm^2), 40 minutes (5.00 J/cm^2) and 60 minutes (7.51 J/cm^2).

[5] = shaded (control for non-light irradiation)
[6] = shaded with aluminum foil (control for non-light irradiation), 40 minutes, then cultivation overnight
[7] = simulated solar light irradiation 40 minutes, about 5 J/cm^2
[8] = simulated solar light irradiation 40 minutes, about 5 J/cm^2 at 360 nm, then cultivation overnight

| SMILES | IC50 at 40 min (in vitro [1]) | photocytotoxicity determination by the phototoxicity test method of the present invention [2] | IC50 (50% inhibitory concentration, cytotoxicity) ([2]; human, 40 min) | photocytotoxicity determination by the comparative phototoxicity test method (Balb/c 3T3 cells) | PIF value (Photo Irritation Facor value) = IC50 shaded / IC50 under light irradiation (Balb/c 3T3 cells; mouse, 40 min) | result in the yeast-RBC assay (yeast-RBC) | PIF value (Photo Irritation Facor value) = IC50 shaded / IC50 under light irradiation ([2]; human, 40 min) | IC50 (50% inhibitory concentration, cytotoxicity) (Balb/c 3T3 cells; mouse, 40 min) | photocytotoxicity determination by the phototoxicity test method of the present invention ([2]; evaluation based on PIF value) | photocytotoxicity determination by the comparative phototoxicity test method (Balb/c 3T3 cells; evaluation based on PIF value) | also measured |
| --- | --- | --- | --- | --- | --- | --- | --- | --- | --- | --- | --- |
| Oc1c(Cl)cc(Cl)cc1Sc1cc(Cl)cc(Cl)c1O [Bithionol, bithionol] | > 10 µg/mL | photocytotoxicity-negative | > 10 µg/mL | photocytotoxicity-positive | 12.4 | false positive |  |  |  |  | concentration at or below which cytotoxicity was not observed ([2]; human, 40 min): ≤ 10 µg/mL |
| [H]/N=C(\N/C(=N/[H])NCCCCCCNC(=N)NC(=N)Nc1ccc(Cl)cc1)Nc1ccc(Cl)cc1 [Chlorhexidine, chlorhexidine] | 42.7 µg/mL (≈ 84.5 µM) | photocytotoxicity-negative | 43.7 µg/mL (≈ 86.5 µM) | photocytotoxicity-negative | 1.4 | false positive | 0.98 | 10.1 µg/mL (≈ 20 µM) |  |  | IC50 at 40 min (in vitro [3]): 13.7 µg/mL (≈ 27.1 µM) |
| CC1(C)S[C@@H]2[C@H](NC(=O)Cc3ccccc3)C(=O)N2[C@H]1C(=O)O [Penicillin G, penicillin G] |  |  |  |  |  |  |  |  | photocytotoxicity-negative | photocytotoxicity-negative | PIF value (Photo Irritation Facor value) = IC50 shaded / IC50 under light irradiation ([2]; from Example 3 and Example 4, greater than 5 = phototoxicity-positive): Photocytotoxicity is not Confirmed; concentration at or below which cytotoxicity was not observed [2, 5]: ≤ 1000 µg/mL; IC50 (50% inhibitory concentration, cytotoxicity) [2, 6]: > 1000 µg/mL; concentration at or below which cytotoxicity was not observed [2, 7]: ≤ 1000 µg/mL; IC50 (50% inhibitory concentration, cytotoxicity) [2, 8]: > 1000 µg/mL; PIF value (Photo Irritation Facor value) = IC50 shaded / IC50 under light irradiation (Balb/c 3T3 cells; from Comparative Example 1 and Comparative Example 2, greater than 5 = phototoxicity-positive): Photocytotoxicity is not Confirmed; concentration at or below which cytotoxicity was not observed (Balb/c 3T3 cells; [5]): ≤ 1000 µg/mL; IC50 (50% inhibitory concentration, cytotoxicity) (Balb/c 3T3 cells; [6]): > 1000 µg/mL; concentration at or below which cytotoxicity was not observed (Balb/c 3T3 cells; [7]): ≤ 1000 µg/mL; IC50 (50% inhibitory concentration, cytotoxicity) (Balb/c 3T3 cells; [8]): > 1000 µg/mL |
| CN(C)CCCN1c2ccccc2Sc2ccc(Cl)cc21 [Chlorpromazine (CPZ), chlorpromazine] |  | photocytotoxicity-positive |  | photocytotoxicity-positive | 23.7 |  | 6.5 |  |  |  | PIF ([4]; 15 min): 1.70; PIF ([4]; 20 min): 1.72; PIF ([4]; 25 min): 3.35; light irradiation dose by which the number of viable cells under light irradiation significantly decreases relative to light blocked conditions ([4]; 25 min, 10 μg/ml): ≥ 3.13 J/cm^2; PIF ([4]; 30 min): 4.57; PIF ([4]; 40 min): 6.53; PIF ([4]; 60 min): 10.94 |
| C=C[C@H]1C[N@@]2CC[C@H]1C[C@H]2[C@H](O)c1ccnc2ccc(OC)cc12 [Quinine, quinine] | 147 µg/mL (≈ 453 µM) |  | 88.9 µg/mL (≈ 274 µM) |  | 128.8 |  | 1.7 | 2.3 µg/mL (≈ 7.09 µM) | photocytotoxicity-negative | photocytotoxicity-positive | IC50 (Balb/c 3T3 cells; mouse, 40 min): 292 µg/mL (≈ 901 µM) |

Source: patent publication US20140099662A1, “PHOTOTOXICITY TEST METHOD” (SUMITOMO CHEMICAL COMPANY, LIMITED, priority 2011, published 2014)
